For the test, the system named is interferon regulatory factor (IRF) pathway in THP1-Dual™ cells. The experiment in a line: THP1-Dual reporter gene assay (Agonist_THP1_EC50). Type of test: cell-based. The following applies: Homo sapiens, 20-24 hrs compound treatment, Lucia luciferase (IRF) readout. The text has this:
This is the cellular reporter assay to evaluate compounds' agonism to interferon regulatory factor (IRF) pathway in THP1-Dual™ cells (InvivoGen, cat number thpd-nfis). THP1-Dual™ cells were derived from the human THP-1 monocyte cell line by stable integration lucia luciferase gene, a new secreted luciferase reporter gene, under the control of an ISG54 (interferon-stimulated gene) minimal promoter in conjunction with five interferon (IFN)-stimulated response elements. As a result, THP1-Dual™ cells allow the study of the IRF pathway, by assessing the activity of Lucia luciferase. Lucia luciferase protein is readily measurable in the cell culture supernatant when using QUANTI-Luc™ (InvivoGen, cat: rep-qlcg-500).
After 20-24 hrs compound treatment in THP1-Dual cells, the compounds' agonism to IRF pathway and cell toxicity were tested by measuring luminescence and OD 450 on an Envision plate reader.
On the day of experiment, 30 μL of test medium (RPMI 1640, 2 mM L-glutamine, 25 mM HEPES, […] heat-inactivated fetal bovine serum) was dispensed in a white 384-well plate (Grenier, cat: 781098) containing the serially diluted compounds (final 1% DMSO) transferred by the Echo550 machine. Then 30 μL of cell suspension (˜33,000 cells, 1.1×10^6 cells/mL) per well was added immediately by thermo multidrop combi dispenser for incubation 20-24 h at 37° C., […]. At the end of the incubation, 10 μL of cellular supernatant was transferred to proxiplate 384-plus plate for IRF detection, and then 10 μL of QUANTI-Luc™ Gold solution was added to the plate that proceeded with the measurement immediately. To detect cell viability, 30 μL of the CCK-8 working solution (Dojindo Molecular Technologies, cat: CK04-20) was added to the cell plate, which was Incubated for 2 hrs in the incubator to measure the absorbance at 450 nm using Envision.

pEC50: −log10 of the molar value.

As usually defined, the pEC50 is the EC50 on a negative log10 scale, so that one unit is a factor of ten. Read a high pEC50 as a low EC50.

On to `CCn1nc(C)c(O)c1-c1n[nH]c(-c2nc(C(N)=O)n3cc(C)ncc23)n1` [Example 1, 1-[3-(2-ethyl-4-hydroxy-5-methyl-pyrazol-3-yl)-1H-1,2,4-triazol-5-yl]-6-methyl-imidazo[1,5-a]pyrazine-3-carboxamide], for which the pEC50 was 6.69.

In turn, `CCn1nc(C)c(O)c1-c1n[nH]c(-c2cc(C(N)=O)n3cc(C)ncc23)n1` [Example 3, 8-[3-(2-ethyl-4-hydroxy-5-methyl-pyrazol-3-yl)-1H-1,2,4-triazol-5-yl]-3-methyl-pyrrolo[1,2-a]pyrazine-6-carboxamide] showed a negative-log EC50 (pEC50) of 6.22.

In turn, `CCn1nc(C)c(O)c1-c1nc(-c2nc(C(N)=O)n3cc(C)ncc23)co1` [Example 9, 1-[2-(2-ethyl-4-hydroxy-5-methyl-pyrazol-3-yl)oxazol-4-yl]-6-methyl-imidazo[1,5-a]pyrazine-3-carboxamide] had a pEC50 of 6.08.

In the case of `CCn1nc(C)c(O)c1-c1nc(-c2nc(C(N)=O)cc3c2cnn3C)c(C(F)F)o1` [Example 10, 4-[5-(difluoromethyl)-2-(2-ethyl-4-hydroxy-5-methyl-pyrazol-3-yl)oxazol-4-yl]-1-methyl-pyrazolo[4,3-c]pyridine-6-carboxamide], the pEC50 was 6.38.

Regarding `CCn1nc(C)c(O)c1-c1n[nH]c(-c2nc(C(N)=O)n3cc(Cl)ncc23)n1` [Example 18, 6-chloro-1-[3-(2-ethyl-4-hydroxy-5-methyl-pyrazol-3-yl)-1H-1,2,4-triazol-5-yl]imidazo[1,5-a]pyrazine-3-carboxamide], the pEC50 is 6.26.

On to `CCn1nc(C)c(O)c1-c1n[nH]c(-c2nc(C(N)=O)n3cc(C)ccc23)n1` [Example 19, 1-[3-(2-ethyl-4-hydroxy-5-methyl-pyrazol-3-yl)-1H-1,2,4-triazol-5-yl]-6-methyl-imidazo[1,5-a]pyridine-3-carboxamide], for which the negative-log EC50 (pEC50) was 6.39.

Molecule `CCn1nc(C)c(O)c1-c1n[nH]c(-c2cc(C(N)=O)c3cc(C)ncn23)n1` [Example 20, 7-[3-(2-ethyl-4-hydroxy-5-methyl-pyrazol-3-yl)-1H-1,2,4-triazol-5-yl]-3-methyl-pyrrolo[1,2-c]pyrimidine-5-carboxamide] gave a pEC50 of 6.55.

With `CCn1nc(C)c(O)c1-c1nc(-n2nc(C(N)=O)c3cc(C)ncc32)co1` [Example 21, 1-[2-(2-ethyl-4-hydroxy-5-methyl-pyrazol-3-yl)oxazol-4-yl]-5-methyl-pyrazolo[3,4-c]pyridine-3-carboxamide], the pEC50 was 6.85.

The molecule `CCn1nc(C)c(O)c1-c1n[nH]c(-n2nc(C(N)=O)c3cc(C)ncc32)n1` [Example 22, 1-[3-(2-ethyl-4-hydroxy-5-methyl-pyrazol-3-yl)-1H-1,2,4-triazol-5-yl]-5-methyl-pyrazolo[3,4-c]pyridine-3-carboxamide] showed a negative logarithm of the EC50 (pEC50) of 7.09.

For `Cc1nn(CCn2ccnc2)c(-c2n[nH]c(-c3nc(C(N)=O)cc4c3cnn4C)n2)c1O` [Example 23, 4-[3-[4-hydroxy-2-(2-imidazol-1-ylethyl)-5-methyl-pyrazol-3-yl]-1H-1,2,4-triazol-5-yl]-1-methyl-pyrazolo[4,3-c]pyridine-6-carboxamide], the negative-log EC50 (pEC50) is 6.56.

With `Cc1nn(CCCC#N)c(-c2n[nH]c(-c3nc(C(N)=O)cc4c3cnn4C)n2)c1O` [Example 24, 4-[3-[2-(3-cyanopropyl)-4-hydroxy-5-methyl-pyrazol-3-yl]-1H-1,2,4-triazol-5-yl]-1-methyl-pyrazolo[4,3-c]pyridine-6-carboxamide], the pEC50 was 6.90.

With `Cc1nn(CCC#N)c(-c2n[nH]c(-c3nc(C(N)=O)cc4c3cnn4C)n2)c1O` [Example 25, 4-[3-[2-(2-cyanoethyl)-4-hydroxy-5-methyl-pyrazol-3-yl]-1H-1,2,4-triazol-5-yl]-1-methyl-pyrazolo[4,3-c]pyridine-6-carboxamide], the negative-log EC50 (pEC50) was 7.30.

The values above are taken from patent US20250074913A1, “PYRAZOLE DERIVATIVES AS STING AGONISTS” (Hoffmann-La Roche Inc., priority 2022, published 2025).
